Molecular target: T1, ER protein (Homo sapiens, UniProt P03372)
T1 sequence (P03372 1-595): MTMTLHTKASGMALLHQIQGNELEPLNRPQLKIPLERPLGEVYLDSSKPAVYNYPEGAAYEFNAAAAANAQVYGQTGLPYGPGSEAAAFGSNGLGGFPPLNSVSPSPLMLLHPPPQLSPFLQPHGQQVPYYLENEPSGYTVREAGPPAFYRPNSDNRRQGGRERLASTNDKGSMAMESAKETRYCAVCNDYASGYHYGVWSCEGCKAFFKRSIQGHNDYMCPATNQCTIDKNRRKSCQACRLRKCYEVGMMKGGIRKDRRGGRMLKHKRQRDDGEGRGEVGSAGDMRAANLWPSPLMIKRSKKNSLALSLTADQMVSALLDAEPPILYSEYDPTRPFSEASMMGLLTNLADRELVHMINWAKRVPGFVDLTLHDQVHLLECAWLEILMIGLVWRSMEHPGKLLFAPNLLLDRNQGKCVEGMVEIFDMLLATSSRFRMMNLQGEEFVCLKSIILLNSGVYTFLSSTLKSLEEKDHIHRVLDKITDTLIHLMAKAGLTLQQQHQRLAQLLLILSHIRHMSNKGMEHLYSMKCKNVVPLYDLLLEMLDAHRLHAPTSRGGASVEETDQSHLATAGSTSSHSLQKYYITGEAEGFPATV
Experiment: Western blotting analysis of ER protein degradation in T47D cell line
Type: cell-based
Design: western blotting detection of the level of intracellular ER protein; endogenous in cells; host or cells: T47D
Details: degradation of ER protein, T47D cells, drug treatment for 16 hours, Western blot gray values vs DMSO control; read-out: DC50 (nM)/T47Dcell line
Method: T47D cells were cultured in an incubator with 5% CO2 at 37° C. Complete medium was RPMI1640 supplemented with 10% Foetal bovine serum (FBS), 100 U/ml Penicillin and Streptomycin, and 0.77 μg/mL recombinant human insulin. Western blotting analysis of T47D cell line: • Cells were plated in a 24-well plate at a cell seeding […] of 1.5×10^5 cells/mL, with 1 ml cell suspensions per well. • After 24 h the cells were adherent, and the cells in each well were treated with 1 μL a certain concentration of ER protein regulators of the present disclosure. […] Afterwards, the membranes were block by using the Blocking Buffer, and the antibody incubation and development were performed. (The above procedures were all based on the antibody product manual of the manufacturer) DC50 value (the drug concentration required for degrading proteins by 50%, abbreviated as DC50) reads method: comparing the gray values of the Western blotting bands for the drug treatment with the gray values of the Western blotting band for the DMSO control, and reading the drug concentration range corresponding to the gray value of the Western blotting bands for the drug treatment which is equal to half of the gray value of the Western blotting band for the DMSO control. DC50 value could also be calculated as follows: using software ImageJ to quantify the gray values of the Western blotting bands for the drug treatment, fitting the relationship curve between drug concentrations and gray values, and from the fitted curve, calculating the drug concentration corresponding to half of the gray value of the Western blotting band for the DMSO control.

SMILES	DC50 [nM]
Cc1ncsc1-c1ccc(CNC(=O)[C@@H]2C[C@@H](O)CN2C(=O)[C@@H](NC(=O)CCOCCOCCOCCOCCC(=O)N(C)CCOc2ccc(/C(=C(/CCCl)c3ccccc3)c3ccccc3)cc2)C(C)(C)C)cc1 [SIAIS180025, N1-(2-(4-((Z)-4-chloro-1,2-diphenylbut-1-en-1-yl)phenoxy)ethyl)-N16-((S)-1-((2S,4R)-4-hydroxy-2-((4-(4-methylthiazol-5-yl)benzyl)carbamoyl)pyrrolidin-1-yl)-3,3-dimethyl-1-oxobutan-2-yl)-N1-methyl-4,7,10,13-tetraoxahexadecanediamide]	< 50
Cc1ncsc1-c1ccc(CNC(=O)[C@@H]2C[C@@H](O)CN2C(=O)[C@@H](NC(=O)CCCCCCC(=O)N(C)CCOc2ccc(/C(=C(/CCCl)c3ccccc3)c3ccccc3)cc2)C(C)(C)C)cc1 [SIAIS180033, N1-(2-(4-((Z)-4-chloro-1,2-diphenylbut-1-en-1-yl)phenoxy)ethyl)-N8-((S)-1-((2S,4R)-4-hydroxy-2-((4-(4-methylthiazol-5-yl)benzyl)carbamoyl)pyrrolidin-1-yl)-3,3-dimethyl-1-oxobutan-2-yl)-N1-methyloctanediamide]	< 50
Cc1ncsc1-c1ccc(CNC(=O)[C@@H]2C[C@@H](O)CN2C(=O)[C@@H](NC(=O)CCN2CCN(CCC(=O)NCCOc3ccc(C(=C(CCCl)c4ccccc4)c4ccc(O)cc4)cc3)CC2)C(C)(C)C)cc1 [SIAIS208107, (2S,4R)-1-((S)-2-(3-(4-(3-((2-(4-(4-chloro-1-(4-hydroxyphenyl)-2-phenylbut-1-en-1-yl)phenoxy)ethyl)amino)-3-oxopropyl)piperazin-1-yl)propanamido)-3,3-dimethylbutanoyl)-4-hydroxy-N-(4-(4-methylthiazol-5-yl)benzyl)pyrrolidine-2-carboxamide]	< 200
Cc1ncsc1-c1ccc(CNC(=O)[C@@H]2C[C@@H](O)CN2C(=O)[C@@H](NC(=O)CCc2ccc(CCC(=O)NCCOc3ccc(C(=C(CCCl)c4ccccc4)c4ccc(O)cc4)cc3)cc2)C(C)(C)C)cc1 [SIAIS208127, (2S,4R)-1-((S)-2-(3-(4-(3-((2-(4-(4-chloro-1-(4-hydroxyphenyl)-2-phenylbut-1-en-1-yl)phenoxy)ethyl)amino)-3-oxopropyl)phenyl)propanamido)-3,3-dimethylbutanoyl)-4-hydroxy-N-(4-(4-methylthiazol-5-yl)benzyl)pyrrolidine-2-carboxamide]	< 100
CN(CCOc1ccc(/C(=C(/CCCl)c2ccccc2)c2ccccc2)cc1)C(=O)CCN1CCN(CCNc2cccc3c2C(=O)N(C2CCC(=O)NC2=O)C3=O)CC1 (stereo not drawn) [SIAIS208135, (Z)-N-(2-(4-(4-chloro-1,2-diphenylbut-1-en-1-yl)phenoxy)ethyl)-3-(4-(2-((2-(2,6-dioxopiperidin-3-yl)-1,3-dioxoisoindolin-4-yl)amino)ethyl)piperazin-1-yl)-N-methylpropanamide]	< 200
O=C(CCCCNc1cccc2c1C(=O)N(C1CCC(=O)NC1=O)C2=O)NCCOc1ccc(C(=C(CCCl)c2ccccc2)c2ccc(O)cc2)cc1 (stereo not drawn) [SIAIS208144, N-(2-(4-(4-chloro-1-(4-hydroxyphenyl)-2-phenylbut-1-en-1-yl)phenoxy)ethyl)-5-((2-(2,6-dioxopiperidin-3-yl)-1,3-dioxoisoindolin-4-yl)amino)pentanamide]	< 100
O=C(CCCCCCNc1cccc2c1C(=O)N(C1CCC(=O)NC1=O)C2=O)NCCOc1ccc(C(=C(CCCl)c2ccccc2)c2ccc(O)cc2)cc1 (stereo not drawn) [SIAIS208145, N-(2-(4-(4-chloro-1-(4-hydroxyphenyl)-2-phenylbut-1-en-1-yl)phenoxy)ethyl)-7-((2-(2,6-dioxopiperidin-3-yl)-1,3-dioxoisoindolin-4-yl)amino)heptanamide]	< 100

Further lines, results first:

DC50 [nM]	SMILES
< 50	Cc1ncsc1-c1ccc(CNC(=O)[C@@H]2C[C@@H](O)CN2C(=O)[C@@H](NC(=O)CCOCCOCCOCCOCCOCCC(=O)N(C)CCOc2ccc(/C(=C(/CCCl)c3ccccc3)c3ccccc3)cc2)C(C)(C)C)cc1 [SIAIS180022, N1-(2-(4-((Z)-4-chloro-1,2-diphenylbut-1-en-1-yl)phenoxy)ethyl)-N19-((S)-1-((2S,4R)-4-hydroxy-2-((4-(4-methylthiazol-5-yl)benzyl)carbamoyl)pyrrolidin-1-yl)-3,3-dimethyl-1-oxobutan-2-yl)-N1-methyl-4,7,10,13,16-pentaoxanonadecanediamide]
< 50	Cc1ncsc1-c1ccc(CNC(=O)[C@@H]2C[C@@H](O)CN2C(=O)[C@@H](NC(=O)CCOCCOCCC(=O)N(C)CCOc2ccc(/C(=C(/CCCl)c3ccccc3)c3ccccc3)cc2)C(C)(C)C)cc1 [SIAIS180023, (2S,4R)-1-((S)-2-(tert-butyl)-16-(4-((Z)-4-chloro-1,2-diphenylbut-1-en-1-yl)phenoxy)-14-methyl-4,13-dioxo-7,10-dioxa-3,14-diazahexadecanoyl)-4-hydroxy-N-(4-(4-methylthiazol-5-yl)benzyl)pyrrolidine-2-carboxamide]
< 50	Cc1ncsc1-c1ccc(CNC(=O)[C@@H]2C[C@@H](O)CN2C(=O)[C@@H](NC(=O)CCOCCOCCOCCC(=O)N(C)CCOc2ccc(/C(=C(/CCCl)c3ccccc3)c3ccccc3)cc2)C(C)(C)C)cc1 [SIAIS180024, (2S,4R)-1-((S)-2-(tert-butyl)-19-(4-((Z)-4-chloro-1,2-diphenylbut-1-en-1-yl)phenoxy)-17-methyl-4,16-dioxo-7,10,13-trioxa-3,17-diazanonadecanoyl)-4-hydroxy-N-(4-(4-methylthiazol-5-yl)benzyl)pyrrolidine-2-carboxamide]
100	Cc1ncsc1-c1ccc(CNC(=O)[C@@H]2C[C@@H](O)CN2C(=O)[C@@H](NC(=O)CCCCCC(=O)N(C)CCOc2ccc(/C(=C(/CCCl)c3ccccc3)c3ccccc3)cc2)C(C)(C)C)cc1 [SIAIS180029, N1-(2-(4-((Z)-4-chloro-1,2-diphenylbut-1-en-1-yl)phenoxy)ethyl)-N7-((S)-1-((2S,4R)-4-hydroxy-2-((4-(4-methylthiazol-5-yl)benzyl)carbamoyl)pyrrolidin-1-yl)-3,3-dimethyl-1-oxobutan-2-yl)-N1-methylheptanediamide]
< 200	Cc1ncsc1-c1ccc(CNC(=O)[C@@H]2C[C@@H](O)CN2C(=O)[C@@H](NC(=O)CCCCCCCC(=O)N(C)CCOc2ccc(/C(=C(/CCCl)c3ccccc3)c3ccccc3)cc2)C(C)(C)C)cc1 [SIAIS180035, N1-(2-(4-((Z)-4-chloro-1,2-diphenylbut-1-en-1-yl)phenoxy)ethyl)-N9-((S)-1-((2S,4R)-4-hydroxy-2-((4-(4-methylthiazol-5-yl)benzyl)carbamoyl)pyrrolidin-1-yl)-3,3-dimethyl-1-oxobutan-2-yl)-N1-methylnonanediamide]
< 200	Cc1ncsc1-c1ccc(CNC(=O)[C@@H]2C[C@@H](O)CN2C(=O)[C@@H](NC(=O)CCCCCCCCC(=O)N(C)CCOc2ccc(/C(=C(/CCCl)c3ccccc3)c3ccccc3)cc2)C(C)(C)C)cc1 [SIAIS180036, N1-(2-(4-((Z)-4-chloro-1,2-diphenylbut-1-en-1-yl)phenoxy)ethyl)-N10-((S)-1-((2S,4R)-4-hydroxy-2-((4-(4-methylthiazol-5-yl)benzyl)carbamoyl)pyrrolidin-1-yl)-3,3-dimethyl-1-oxobutan-2-yl)-N1-methyldecanediamide]
< 200	Cc1ncsc1-c1ccc(CNC(=O)[C@@H]2C[C@@H](O)CN2C(=O)[C@@H](NC(=O)CCc2ccc(CCC(=O)N(C)CCOc3ccc(/C(=C(/CCCl)c4ccccc4)c4ccccc4)cc3)cc2)C(C)(C)C)cc1 [SIAIS208125, (2S,4R)-1-((S)-2-(3-(4-(3-((2-(4-((Z)-4-chloro-1,2-diphenylbut-1-en-1-yl)phenoxy)ethyl)(methyl)amino)-3-oxopropyl)phenyl)propanamido)-3,3-dimethylbutanoyl)-4-hydroxy-N-(4-(4-methylthiazol-5-yl)benzyl)pyrrolidine-2-carboxamide]
< 50	CCC(=C(c1ccc(O)cc1)c1ccc(OCCNC(=O)CCCCCCCC(=O)N[C@H](C(=O)N2C[C@H](O)C[C@H]2C(=O)NCc2ccc(-c3scnc3C)cc2)C(C)(C)C)cc1)c1ccc(O)cc1 [SIAIS208167, N1-(2-(4-(1,2-bis(4-hydroxyphenyl)but-1-en-1-yl)phenoxy)ethyl)-N9-((S)-1-((2S,4R)-4-hydroxy-2-((4-(4-methylthiazol-5-yl)benzyl)carbamoyl)pyrrolidin-1-yl)-3,3-dimethyl-1-oxobutan-2-yl)nonanediamide]

Reference: US20220016102A1, “ER PROTEIN REGULATORS AND USE THEREOF” (ShanghaiTech University, priority 2018, published 2022)
